This note sets out measurements from ChEMBL document CHEMBL1126529, “A diazine heterocycle replaces a six-membered hydrogen-bonded array in the active site of scytalone dehydratase” (Bioorg Med Chem Lett, 1993).

The target in test [1] is T1, Scytalone dehydratase (Magnaporthe oryzae (strain 70-15 / FGSC 8958) (Rice blast fungus)(Pyricularia oryzae), UniProt P56221).
T1 sequence (P56221 whole entry): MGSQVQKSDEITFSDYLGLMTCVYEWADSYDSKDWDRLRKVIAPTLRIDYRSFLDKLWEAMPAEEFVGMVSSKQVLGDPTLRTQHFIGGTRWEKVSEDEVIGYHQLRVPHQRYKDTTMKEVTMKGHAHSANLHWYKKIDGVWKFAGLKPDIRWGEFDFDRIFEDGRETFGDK
Kind of test: The inhibitory activity (Ki) of the protonated compound was measured against scytalone dehydratase at pH 7.0. Further details: species or system Pyricularia grisea.

Test [2] has as its target T1, Scytalone dehydratase. Kind of test: The inhibitory activity (Ki) of the deprotonated compound was measured against scytalone dehydratase at pH 9.8. The arrangement: species or system Pyricularia grisea.

For `c1ccc(CCCNc2nccc3ccccc23)cc1`, the Ki at Scytalone dehydratase [1] is 6.7 µM; at Scytalone dehydratase [2] it was 2300 nM.
On to `O=C(NCCCc1ccccc1)c1ccccc1O`, for which the Ki at Scytalone dehydratase [1] came out at 0.0073 µM; at Scytalone dehydratase [2] it was 230 nM.
Taken in the same sequence, the figures for `c1ccc(CCCNc2ccnc3ccccc23)cc1` were 88 µM and 45000 nM.
In the case of `c1ccc(CCCNc2ncnc3ccccc23)cc1`, the Ki on Scytalone dehydratase [1] turned out to be 1.8 µM; at Scytalone dehydratase [2], 19 nM.
